In patent US9273003B2, “Methods of treating lymphoma and rheumatoid arthritis with cyclopentyl (2S)-cyclohexyl[({6-[3-(hydroxyamino)-3-oxopropyl]pyridin-3-yl}methyl)amino]acetate” (GlaxoSmithKline Intellectual Property Development Limited, priority 2006, dated 2016) one finds IC50 data, which are given here for ten compounds.

Where only a bound is given, the exact number is not on record here.

Test [1] addresses histone deacetylase activity (HeLa nuclear extract). As to the kind of experiment: HDAC fluorescent activity assay (Fluor de Lys, Biomol). Format: biochemical. Conditions: IC50 allocated to ranges, read-out: HDAC activity. As for the experimental part: The ability of compounds to inhibit histone deacetylase activities was measured using the commercially available HDAC fluorescent activity assay from Biomol. In brief, the Fluor de Lys™ substrate, a lysine with an epsilon-amino acetylation, is incubated with the source of histone deacetylase activity (HeLa nuclear extract) in the presence or absence of inhibitor. Deacetylation of the substrate sensitises the substrate to Fluor de Lys™ developer, which generates a fluorophore. Thus, incubation of the substrate with a source of HDAC activity results in an increase in signal that is diminished in the presence of an HDAC inhibitor.
Data are expressed as a percentage of the control, measured in the absence of inhibitor, with background signal being subtracted from all samples, as follows: % activity=[(S^i−B)/(S^o−B)]×100 where S^i is the signal in the presence of substrate, enzyme and inhibitor, S^o is the signal in the presence of substrate, enzyme and the vehicle in which the inhibitor is dissolved, and B is the background signal measured in the absence of enzyme.
IC50 values were determined by non-linear regression analysis, after fitting the results of eight data points to the equation for sigmoidal dose response with variable slope (% activity against log concentration of Compound), using Graphpad Prism software.
Histone deacetylase activity from crude nuclear extract derived from HeLa cells was used for screening. The preparation, purchased from 4C (Seneffe, Belgium), was prepared from HeLa cells harvested whilst in exponential growth phase. The nuclear extract was prepared according to the methodology described by J. D. Dignam, Nucl. Acid. Res., 1983, 11, 1475-1489, snap frozen in liquid nitrogen and stored at −80° C. The final buffer composition was 20 mM Hepes, 100 mM KCl, 0.2 mM EDTA, 0.5 mM DTT, 0.2 mM PMSF and 20% (v/v) glycerol.

In another test the test system is HUT78 cells. In words: HUT cell inhibition assay (WST-1 cell viability). The format is cell-based. The note with it: Homo sapiens; HUT78 cells; IC50 allocated to ranges; read-out: HUT activity. On the procedure: (§1) Cancer cell lines (U937 and HUT) growing in log phase were harvested and seeded at 1000-2000 cells/well (100 μl final volume) into 96-well tissue culture plates. Following 24 h of growth cells were treated with Compound. Plates were then re-incubated for a further 72-96 h before a WST-1 cell viability assay was conducted according to the suppliers (Roche Applied Science) instructions.
(§2) Data were expressed as a percentage inhibition of the control, measured in the absence of inhibitor, as follows: % inhibition=100−[(S^i/S^o)×100] where S^i is the signal in the presence of inhibitor and S^o is the signal in the presence of DMSO.
(§3) Dose response curves were generated from 8 concentrations (top final concentration 10 μM, with 3-fold dilutions), using 6 replicates.
(§4) IC50 values were determined by non-linear regression analysis, after fitting the results to the equation for sigmoidal dose response with variable slope (% activity against log concentration of Compound), using Graphpad Prism software.
Background: Formazan colour is commonly taken as a measure of viable cells.

The test system of the next test is U937 cells. As to the kind of experiment: U937 cell inhibition assay (WST-1 cell viability). The format is cell-based. The note with it: Homo sapiens, U-937; U937 cells; IC50 allocated to ranges; read-out: U937 activity. On the procedure:
as §1, §2, §3, §4

For the compound `CC(C)C[C@H](NCc1ccc(CNCc2ccc(CCC(=O)NO)cc2)cc1)C(=O)OC(C)(C)C` [Example 78, tert-Butyl N-{4-[({4-[3-(hydroxyamino)-3-oxopropyl]benzyl}amino)methyl]benzyl}-L-leucinate], the IC50 in test [1] was 101 to 1000 nM; in the test on HUT78 cells it was 331 to 3300 nM; with U937 cells, below 330 nM.

On to `CC(C)[C@H](NCc1ccc(CCC(=O)NO)cc1)C(=O)OC1CCCC1` [Example 42, Cyclopentyl N-{4-[3-(hydroxyamino)-3-oxopropyl]benzyl}-L-valinate], for which the IC50 was above 1000 nM in test [1], 331 to 3300 nM in the test with HUT78 cells and below 330 nM with U937 cells.

On to `CC(C)C[C@H](NCc1ccc(CCC(=O)NO)cc1)C(=O)OC(C)(C)C` [Example 41, tert-Butyl N-{4-[3-(hydroxyamino)-3-oxopropyl]benzyl}-L-leucinate], for which the IC50 in test [1] is 101 to 1000 nM; with HUT78 cells, 331 to 3300 nM; with U937 cells, below 330 nM.

In the case of `CC(C)[C@H]1CC[C@H](C)C[C@@H]1OC(=O)[C@@H](NCc1ccc(CCC(=O)NO)cc1)C1CCCCC1` [Example 48, (1S,2R,5S)-2-Isopropyl-5-methylcyclohexyl (2S)-cyclohexyl({4-[3-(hydroxyamino)-3-oxopropyl]benzyl}amino)acetate], the IC50 in test [1] was above 1000 nM; in the test with HUT78 cells, 331 to 3300 nM; in the test on U937 cells, 331 to 3300 nM.

Take `CC(C)C[C@H](NCc1ccc(CCC(=O)NO)cn1)C(=O)OC(C)(C)C` [Example 71, tert-Butyl N-({5-[3-(hydroxyamino)-3-oxopropyl]pyridin-2-yl}methyl)-L-leucinate]: the values for the IC50 (in test [1]; with HUT78 cells; in the test with U937 cells) were above 1000 nM, above 3300 nM and 331 to 3300 nM, respectively.

Regarding `O=C(CCc1cccc(CN[C@H](C(=O)OC2CCCC2)c2ccccc2)c1)NO` [Example 51, Cyclopentyl (2S)-({3-[3-(hydroxyamino)-3-oxopropyl]benzyl}amino)(phenyl)acetate], the IC50 in test [1] is above 1000 nM; in the test with HUT78 cells, above 3300 nM; in the test on U937 cells, above 3300 nM.

In the case of `O=C(CCc1ccc(CN[C@H](C(=O)OC2CCCC2)C2CCCCC2)nc1)NO` [Example 70, Cyclopentyl (2S)-cyclohexyl[({5-[3-(hydroxyamino)-3-oxopropyl]pyridin-2-yl}methyl)amino]acetate], the values for the IC50 (in test [1]; in the test on HUT78 cells; in the test on U937 cells) were 101 to 1000 nM, 331 to 3300 nM and below 330 nM, respectively.

Turning to `O=C(CCc1ccc(CN[C@H](C(=O)OC2CCCC2)C2CCCCC2)cc1)NO` [Example 33, Cyclopentyl (2S)-cyclohexyl({4-[3-(hydroxyamino)-3-oxopropyl]benzyl}amino)acetate], the results for the IC50 (in test [1]; in the test on HUT78 cells; in the test on U937 cells) were 101 to 1000 nM, 331 to 3300 nM and below 330 nM, respectively.

With `CC(C)[C@H](NCc1ccc(CCC(=O)NO)cc1)C(=O)OC(C)(C)C` [Example 47, tert-Butyl N-{4-[3-(hydroxyamino)-3-oxopropyl]benzyl}-L-valinate], the results for the IC50 (in test [1]; with HUT78 cells; with U937 cells) were above 1000 nM, 331 to 3300 nM and above 3300 nM, respectively.

On to `CC(C)C[C@H](NCc1ccc(CCC(=O)NO)nc1)C(=O)OC(C)(C)C` [Example 66, tert-Butyl N-({6-[3-(hydroxyamino)-3-oxopropyl]pyridin-3-yl}methyl)-L-leucinate], for which the IC50 was below 100 nM in test [1], 331 to 3300 nM with HUT78 cells and below 330 nM in the test with U937 cells.
